Experimental data published in article PMC10974272, “Cytotoxic and Antiproliferative Activity of LASSBio-2208 and the Attempts to Determine Its Drug Metabolism and Pharmacokinetics In Vitro Profile” (Pharmaceuticals, 2024).

What was measured:
[1] = Non-specific microsome protein binding; format: in vitro ADME; details: for fraction unbound at 60 min, 8.3 µM: rat, pH 7.4, liver microsomes 0.5 mg protein/mL, 37 °C, read-out: Percentage of ƒu(mic) (unbound fraction in nonspecific microsomal binding)
Description: Once such bonds are formed, the bound fraction would become incapable of being metabolized.
Liver microsomes were diluted with PBS pH 7.4 to a concentration of 0.5 mg protein/mL and 3 µL at 1 mM of the working test compound and solutions were mixed with 357 µL of liver microsome suspension. After mixing, duplicate 200 µL aliquots were immediately removed, while another microtubule acted as the control sample (T 0 h), and were quenched with 400 µL of cold acetonitrile containing analytical internal standards. The other samples were incubated at 37 °C at 100 rpm, for 60 min with the same subsequent treatment.

PAMPA—BBB = format: in vitro ADME; set-up: key to Classification BBB: permeable (CNS+); non-permeable (CNS−); details: for Papp: read-out: Pe. Exp. BBB
Description: To obtain information on the permeability potential of LASSBio-2208 on cell membranes, this derivative was tested using the parallel artificial membrane permeability assay (PAMPA) that is used as an in vitro model of passive diffusion and transcellular permeation. In this model, the permeability across two artificial membranes is measured: brain lipid from pig extract in dodecane (called PAMPA—BBB) and L-α soy phosphatidylcholine in dodecane (called PAMPA—TGI).
To perform the permeability assay we used a donor plate where the compounds (tests or controls) are diluted in a buffered medium, characterized by the presence of a synthetic membrane of polyvinylidene fluoride (PVDF) impregnated with a lipid solution, forming a barrier through which the compounds migrate through a diffusion process to the lower plate called the receptor.
The lipid mixture that impregnates the filter has a different constitution for the permeability tests for the blood–brain barrier (brain lipid from pig extract in dodecane) and gastrointestinal tract (L-α soy phosphatidylcholine in dodecane). In the PAMPA—BBB and PAMPA—GIT assays, the optical density values obtained in the reading at each selected wavelength, for each of the compounds were analysed in comparison with the values of several controls. In the case of the BBB, these values were used to elaborate an equation and determine the permeability coefficient (Pe), using a previously elaborated spreadsheet, and, for the PAMPA—GIT, these values were used to determine the absorbed fraction (Fa%), both using the Excel program. The permeability result for PAMPA—GIT classifies the compounds according to the percentage of absorbed fraction (Fa%), as follows: high intestinal permeability (70–100%), medium permeability (30–69%) or low permeability (0–29%), and the samples were diluted from a stock solution of 10 mM. The PAMPA—BBB model classifies the compounds only as follows: permeable (CNS+) or non-permeable (CNS−) and the assays were made from a stock solution of 1 mg for each compound [25, 40, 41, 42].

[2] = test system: human prostate cancer cell line (PC-3); assay: MTT cell viability assay, PC-3; details: Homo sapiens
Description: (§1) After the incubation time, the plate was centrifuged (Universal centrifuge 320R Hettich, Kirchlengern, Germany) at 440× g, 10 min and 4 °C, then 110 µL of supernatant was removed and 10 µL of MTT solution was added and left to incubate for 3.5 h in the oven at 37 °C and 5% CO2. […] The CC50 was calculated using the GraphPad Prism 9.0 program. Each sample was tested in triplicate in three independent experiments (N3) [32, 33].

[3] = test system: T lymphoblast cell line (MOLT-4); assay: MTT cell viability assay, MOLT-4; details: Homo sapiens
Description: as §1

MCF-7 = assay: SRB cell viability/antiproliferative assay, MCF-7; details: Homo sapiens, MCF7, 48 h; for Emax: SRB 48 h, MCF-7, maximum effect at maximum concentration used
[4] = test system: breast cancer cell line (MCF-7); assay: MTT cell viability assay, MCF-7; details: Homo sapiens
Description: as §1

HDAC-6 = details: cited from earlier work
PC-3 = assay: SRB cell viability/antiproliferative assay, PC-3; details: for Emax: SRB 48 h, PC-3, maximum effect at maximum concentration used
MOLT-4 = assay: SRB cell viability/antiproliferative assay, MOLT-4; details: Homo sapiens, MOLT-4, 48 h
[5] = test system: human leukaemia cell line (CCRF-CEM); assay: MTT cell viability assay, CCRF-CEM
Description: as §1

HDAC8 = details: cited from earlier work
CCRF-CEM = assay: SRB cell viability/antiproliferative assay, CCRF-CEM; details: Homo sapiens, 48 h

Compound	fraction unbound at 60 min, 8.3 µM [1]	Classification BBB (PAMPA—BBB)	Papp (PAMPA—BBB)	CC50 ([2]; 24 h)	Emax ([2]; 24 h)	CC50 ([2]; 48 h)	Emax ([2]; 48 h)	CC50 ([2]; 72 h)	Emax ([2]; 72 h)	CC50 ([3]; MOLT-4, 24 h)	Emax ([3]; MOLT-4, 24 h)	CC50 ([3]; MOLT-4, 48 h)	Emax ([3]; MOLT-4, 48 h)	CC50 ([3]; MOLT-4, 72 h)	Emax ([3]; MOLT-4, 72 h)	CC50 (MCF-7)	Emax (MCF-7)	CC50 ([4]; MCF7, 24 h)	Emax ([4]; MCF7, 24 h)	CC50 ([4]; MCF7, 48 h)	also measured
CN(C)c1ccc(C(=O)N/N=C/c2ccc(C(=O)NO)cc2)cc1 [LASSBio-1911]	0.004	CNS−	0.29 ×10⁻⁶ cm/s	> 100 µM	26.4%	> 100 µM	42.6%	77.1 µM	59.2%	13.8 µM	96.5%	6.15 µM	98.9%	5.27 µM	99.2%	39.1 µM	> 80%	> 100 µM	21.6%	42.6 µM	Emax ([4]; MCF7, 48 h): 65.4%; CC50 ([4]; MCF7, 72 h): 38.4 µM; Emax ([4]; MCF7, 72 h): 75.4%; IC50 (HDAC-6): 0.015 µM; CC50 (PC-3; Homo sapiens, PC-3, 48 h): > 100 µM; Emax (PC-3; Homo sapiens, PC-3, 48 h): < 35%; Emax (PC-3): 34.04%; CC50 (MOLT-4): 53.1 µM; Emax (MOLT-4): 61%; CC50 ([5]; 24 h): 9.69 µM; Emax ([5]; 24 h): 98%; CC50 ([5]; 48 h): 6.98 µM; Emax ([5]; 48 h): 98.8%; CC50 ([5]; 72 h): 6.92 µM; Emax ([5]; 72 h): 97.1%; IC50 (HDAC8): 0.23 µM; CC50 (CCRF-CEM): 25.2 µM; Emax (CCRF-CEM): 69.2%
O=C(NO)c1ccc(/C=N/NC(=O)c2cc(N3CCOCC3)nc(-c3cccc(O)c3)n2)cc1 [LASSBio-2208]	0.937	CNS−	0.69 ×10⁻⁶ cm/s	> 100 µM	18.4%	> 100 µM	39.3%	> 100 µM	42.1%	7.14 µM	84.1%	8.26 µM	83.2%	7.15 µM	91.2%	5.44 µM	67.4%	> 100 µM	29.5%	31.7 µM	unbound in nonspecific microsomal binding ([1]; liver microsomes): more than 93%; Pe. Exp. BBB (PAMPA—BBB): low permeation; Emax ([4]; MCF7, 48 h): 57.3%; CC50 ([4]; MCF7, 72 h): 23 µM; Emax ([4]; MCF7, 72 h): 60.7%; IC50 (HDAC-6): 0.0153 µM; CC50 (PC-3; Homo sapiens, PC-3, 48 h): 98.9 µM; Emax (PC-3; Homo sapiens, PC-3, 48 h): > 50%; CC50 (MOLT-4): > 100 µM; CC50 ([5]; 24 h): 27.8 µM; Emax ([5]; 24 h): 69.4%; CC50 ([5]; 48 h): 8.68 µM; Emax ([5]; 48 h): 91.7%; CC50 ([5]; 72 h): 8.54 µM; Emax ([5]; 72 h): 90.4%; IC50 (HDAC8): 0.0676 µM; CC50 (CCRF-CEM): > 100 µM
